# Reference: patent US20210283220A1, “ANTIBODY MOLECULE-DRUG CONJUGATES AND USES THEREOF” (priority 2017, published 2021)
# No end group written: not given here.
# Key:
# [1] = tested on: E. coli; assay: Minimal inhibitory concentration (MIC) assay, broth microdilution; assay type: cell-based, Escherichia coli; conditions: for MIC Eco 25922: E. coli 25922; for MIC Eco 43745: E. coli 43745, in the presence of PBS
# Description: (§1) Daughter plates were prepared as follows.
# (§2) Cultured media were prepared as follows.
# [2] = tested on: P. aeruginosa 27853; assay: MIC / killing activity in the presence of human serum (hsMIC, 50% human serum); assay type: cell-based, Pseudomonas aeruginosa; conditions: for 50% hsMIC Pae 27853: P. aeruginosa 27853, 50% human serum; for hsMIC/MIC: ratio
# Description: In an embodiment, the MIC is determined in the presence of phosphate-buffered saline (PBS). In an embodiment, the MIC or hsMIC is determined on per ADC basis. In an embodiment, the MIC or hsMIC is determined on per payload or antimicrobial peptide basis.
# [3] = tested on: P. aeruginosa; assay: Minimal inhibitory concentration (MIC) assay, broth microdilution; assay type: cell-based, Pseudomonas aeruginosa
# [4] = tested on: P. aeruginosa ATCC 27853; assay: Resistance rate determination (standard and micro-dotting protocols); assay type: cell-based, Pseudomonas aeruginosa
# Description: . These rates are considered favorable when compared to published rates in the 10^−5 to 10^−8 range. […]
# [5] = tested on: S. aureus; assay: Minimal inhibitory concentration (MIC) assay, broth microdilution; assay type: cell-based, Staphylococcus aureus; conditions: S. aureus 29213; in the presence of PBS
# Description: as §1, §2
# [6] = tested on: K. pneumoniae; assay: as above; assay type: cell-based, Klebsiella pneumoniae; conditions: K. pneumoniae 700603; in the presence of PBS
# Description: as §1, §2
# [7] = tested on: P. aeruginosa; assay: Microbial killing assay (percent killing, CFU); assay type: cell-based, Pseudomonas aeruginosa; conditions: for 50% Killing Activity, BAA-2108: MDR P. aeruginosa strain BAA-2108; for 50% Killing Activity, BAA-2110: MDR P. aeruginosa strain BAA-2110; for 50% Killing Activity, BAA-2114: MDR P. aeruginosa strain BAA-2114; for 50% Killing Activity, Pae 27853: P. aeruginosa strain 27853, Table 10
# Description: Bactericidal assay: Direct killing activity of the ADC can be measured against two well described laboratory strains of P. aeruginosa (PA14 and PA01) and no less than three clinical strains of P. aeruginosa, including MDR and Pan-resistant strains. These assays are conducted in the absence of complement or effector cells. Activity in this assay can provide insight on the inherent killing activity of the ADC.
# The microbial killing assay was performed as follows. Bacterial cells were grown aerobically overnight on agar plates at 37° C. Overnight plates were used to seed 30 ml cultures of growth media in 250 ml vented flasks. Cultures were grown aerobically at 37° C., shaking at 150 rpm. Growth was monitored at A600 nM and bacterial cells were harvested at mid-log growth. Ten ml of culture was pelleted at 4000×G for 10 minutes and washed one time with PBS plus 1% BSA before re-suspending in 2 ml PBS+BSA. […] Cultures were diluted to 1×10^4 cells/ml in PBS plus BSA. Test articles were diluted in PBS+1% BSA and 50 μl per concentration tested was loaded into a 96 well polypropylene microtiter plate. Fifty μl of diluted culture was added to all test wells as well as no compound control wells. Plates were shaken and incubated at 37° C., 90 minutes, static. Ten μl from each assay well was plated onto agar plates and incubated at 37° C. overnight. Percent killing was determined by the CFU for test wells compared to the CFU for no compound control wells.
# [8] = P. aeruginosa 27853, in the presence of PBS
# [9] = P. aeruginosa 39324, in the presence of PBS
substance,measurement,setting,value
(MAL)-(EG3)-GIGKFLKKAKKFGKAFVKILKK [peptide 21],MIC Eco 25922,[1],8 µg/mL
Ceftazadime [reference compound],50% hsMIC Pae 27853,[2],1 µg/mL
same,hsMIC/MIC,[2],1
same,MIC Pae 27853,[3]; [8],1 µg/mL
same,MIC Pae 39324,[3]; [9],1 µg/mL
same,MIC Pae 27853,[3]; strain Pae27853,1 µg/mL
same,MIC Pae 39324,[3]; strain Pae39324,2 µg/mL
Colistin [reference compound],"resistance rate, Micro-dotting",[4]; 2x MIC,1.08E−07
same,"resistance rate, Standard",[4]; 2x MIC,6.50E−08
same,"resistance rate, Micro-dotting",[4]; 4x MIC,2.10E−09
same,"resistance rate, Standard",[4]; 4x MIC,1.60E−09
same,"resistance rate, Micro-dotting",[4]; 8x MIC,<1.1E−09
same,"resistance rate, Standard",[4]; 8x MIC,<1.6E−09
GAFGNFLKGVAKKAGLKILSIAQCKLFGTC [peptide 70],MIC Pae 27853,[3]; P. aeruginosa 27853,8 µg/mL
same,MIC Eco 25922,[1],4 µg/mL
GGG-D-Dab-cyclic(L-Dab-L-Dab-D-Leu-L-Phe-L-Dab-L-Dab-L-Leu) [GGG-Octapeptin],50% hsMIC Pae 27853,[2],2 µg/mL
same,hsMIC/MIC,[2],1
same,MIC Pae 27853,[3]; [8],2 µg/mL
same,MIC Pae 39324,[3]; [9],2 µg/mL
same,MIC Sau 29213,[5],>128 µg/mL
same,MIC Kpn 700603,[6],>128 µg/mL
GGGGIGKFLKKAKKFGKAFVKILKK [Peptide P261],MIC Eco 43745,[1],4 µg/mL
GGGGLRKRLRKFRNKIKEKLKKIGQKIQGLLPKLA [Peptide P271],MIC Eco 43745,[1],4 µg/mL
GGGGLRRLGRKIAHGIKKYGPTILRIIRIAG [Peptide P293],MIC Pae 27853,[3]; [8],8 µg/mL
same,MIC Pae 39324,[3]; [9],2 µg/mL
same,MIC Eco 43745,[1],4 µg/mL
same,MIC Kpn 700603,[6],4 µg/mL
GGGGRFKRFRKKFKKLFKKLSPVIPLLHLG [Peptide P295],50% hsMIC Pae 27853,[2],2 µg/mL
same,hsMIC/MIC,[2],0.5
same,MIC Pae 27853,[3]; [8],4 µg/mL
same,MIC Pae 39324,[3]; [9],4 µg/mL
same,MIC (P. aeruginosa ATCC 27853),[3],1 to 4 µg/mL
same,"50% Killing Activity, BAA-2108",[7],0.6 µg/mL
same,"50% Killing Activity, BAA-2110",[7],0.6 µg/mL
same,"50% Killing Activity, BAA-2114",[7],0.14 µg/mL
same,"50% Killing Activity, Pae 27853",[7],0.3 µg/mL
GGGGSGGGGSGIGKFLKKAKKFGKAFVKILKK [peptide 23],MIC Eco 25922,[1],8 µg/mL
GGGKFFRKLKKSVKKRAKEFFKKPRVIGVSIPF [Peptide P297],50% hsMIC Pae 27853,[2],8 µg/mL
same,hsMIC/MIC,[2],2
same,MIC Pae 27853,[3]; [8],4 µg/mL
same,MIC Pae 39324,[3]; [9],2 µg/mL
same,MIC (P. aeruginosa ATCC 27853),[3],1 to 4 µg/mL
same,MIC Eco 43745,[1],2 µg/mL
same,"50% Killing Activity, BAA-2108",[7],0.28 µg/mL
same,"50% Killing Activity, BAA-2110",[7],0.28 µg/mL
same,"50% Killing Activity, BAA-2114",[7],0.07 µg/mL
same,"50% Killing Activity, Pae 27853",[7],0.04 µg/mL
GGGKRFKKFFKKLKNSVKKRAKKFFKKPRVIGVSIPF [Peptide P296],50% hsMIC Pae 27853,[2],1 µg/mL
same,hsMIC/MIC,[2],0.25
same,MIC Pae 27853,[3]; [8],4 µg/mL
same,MIC Pae 39324,[3]; [9],2 µg/mL
same,MIC Eco 43745,[1],4 µg/mL
GGGLLGDFFRKSKEKIGKEFKRIVQRIKDFLRNLVPRTES [Peptide P265],50% hsMIC Pae 27853,[2],>128 µg/mL
same,hsMIC/MIC,[2],>4
same,MIC Eco 43745,[1],8 µg/mL
same,MIC Kpn 700603,[6],>128 µg/mL
GGGRGLRRLGRKIAHGVKKYGPTVLRIIKKYG [Peptide P294],MIC Eco 43745,[1],2 µg/mL
same,MIC Kpn 700603,[6],8 µg/mL
GIGKFLKKAKKFGKAFVKILKK [peptide 109],MIC Pae 27853,[3]; P. aeruginosa 27853,8 µg/mL
same,MIC Eco 25922,[1],4 µg/mL
GIGKFLKKAKKFGKAFVKILKK-NH2 [Peptide P32],"resistance rate, Micro-dotting",[4]; 2x MIC,1.08E−07
same,"resistance rate, Micro-dotting",[4]; 4x MIC,9.59E−08
same,"resistance rate, Standard",[4]; 4x MIC,<1.6E−09
same,"growth of resistant colonies, standard protocol",[4]; 4×MIC and above,no growth was observed
same,"resistance rate, Micro-dotting",[4]; 8x MIC,8.02E−09
same,"resistance rate, Standard",[4]; 8x MIC,<1.6E−09
GIGKFLKKAKKFGKAFVKILKKGGGGSGGGGS [peptide 24],MIC Pae 27853,[3]; P. aeruginosa 27853,8 µg/mL
GLRKRLRKFRNKIKEKLKKIGQKIQGLLPKLA [Peptide 33],MIC Pae 27853,[3]; P. aeruginosa 27853,8 µg/mL
same,MIC Eco 25922,[1],8 µg/mL
RLGNFFRKAKKKIGRGLKKIGQKIKDFLGNLVPRTES [peptide 128],MIC Pae 27853,[3]; P. aeruginosa 27853,8 µg/mL
